Molecules are shown by their SMILES.

This test has as its target T1, P2X7 receptor (Homo sapiens, UniProt Q99572).
T1 construct: stably expressing the full length P2X7 receptor; expressed in transfected cells
T1 sequence (Q99572 1-595): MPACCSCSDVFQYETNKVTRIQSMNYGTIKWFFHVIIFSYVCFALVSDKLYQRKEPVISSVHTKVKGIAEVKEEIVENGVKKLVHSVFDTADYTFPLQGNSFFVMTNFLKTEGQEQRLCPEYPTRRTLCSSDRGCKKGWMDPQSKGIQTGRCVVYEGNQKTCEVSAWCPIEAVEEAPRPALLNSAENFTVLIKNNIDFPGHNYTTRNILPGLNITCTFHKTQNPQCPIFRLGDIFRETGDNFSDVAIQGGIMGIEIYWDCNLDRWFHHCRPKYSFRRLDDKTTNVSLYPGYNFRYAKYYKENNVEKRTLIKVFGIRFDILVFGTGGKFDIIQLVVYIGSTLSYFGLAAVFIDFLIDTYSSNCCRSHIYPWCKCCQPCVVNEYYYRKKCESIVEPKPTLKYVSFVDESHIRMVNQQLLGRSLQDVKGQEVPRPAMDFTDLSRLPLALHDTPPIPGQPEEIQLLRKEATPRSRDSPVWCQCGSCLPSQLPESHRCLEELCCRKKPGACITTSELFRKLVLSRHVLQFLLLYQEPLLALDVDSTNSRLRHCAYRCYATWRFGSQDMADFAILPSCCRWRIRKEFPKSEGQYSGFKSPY
The test is described as follows: Ca++ flux assay (FLIPR) in P2X7-HEK-293 cell line stably expressing the full length P2X7 receptor, Bz-ATP activation. In kind it is cell-based. As to conditions: P2X7-HEK-293 cells; agonist Bz-ATP; fluorescence as total area over 90 seconds; read-out: P2X7 Ca Flux hu IC50. In a few lines: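 HEK-293 cells stably expressing full-length P2X7 were loaded with Ca++-sensitive dye for 1 h, with compound added during loading. Cells were stimulated with Bz-ATP on FLIPR. Fluorescence was integrated as total area over 90 s, and IC50 was taken as 50% inhibition of the maximal Ca++ response.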
With `Cc1c(Cl)cccc1-n1ccn2c(SCCc3ccccc3)nnc2c1=O` [Compound 112, 7-(3-chloro-2-methylphenyl)-3-(phenethylthio)-[1,2,4]triazolo[4,3-a]pyrazin-8(7H)-one], the 50% inhibitory concentration (IC50) was 660 nM.

With `Cc1cccc(-c2ccccc2CS(=O)(=O)c2nnc3c(=O)n(-c4cccc(C(F)(F)F)c4C)ccn23)c1` [Compound 137], the IC50 turned out to be 30.4 nM.

For `Cc1c(Cl)cccc1-n1ccn2c(SCC(=O)c3ccccc3C(F)(F)F)nnc2c1=O` [Compound 109, 7-(3-chloro-2-methylphenyl)-3-(2-oxo-2-(2-(trifluoromethyl)phenyl)ethylthio)-[1,2,4]-triazolo[4,3-a]pyrazin-8(7H)-one], the concentration for half-maximal inhibition (IC50) came to 448 nM.

On to `Cc1c(-n2ccn3c(SC(C(=O)c4ccccc4)c4ccccc4)nnc3c2=O)cccc1C(F)(F)F` (centres unmarked) [Compound 22, 7-(2-methyl-3-(trifluoromethyl)phenyl)-3-(2-oxo-1,2-diphenylethylthio)-[1,2,4]triazolo[4,3-a]pyrazin-8(7H)-one], for which the IC50 turned out to be 1450 nM.

`Cc1c(Cl)cccc1-n1ccn2c(SCc3cccc(Cl)c3F)nnc2c1=O` [Compound 63, 3-(3-chloro-2-fluorobenzylthio)-7-(3-chloro-2-methylphenyl)-[1,2,4]triazolo[4,3-a]pyrazin-8(7H)-one]: the IC50 was 2540 nM.

For the compound `Cc1c(-n2ccn3c(S(=O)(=O)Cc4ccccc4Br)nnc3c2=O)cccc1C(F)(F)F` [Compound 131, 3-(2-bromobenzylsulfonyl)-7-(2-methyl-3-(trifluoromethyl)phenyl)-[1,2,4]triazolo[4,3-a]pyrazin-8(7H)-one], the IC50 was determined as 17.7 nM.

Consider `Cc1c(-n2ccn3c(S(=O)(=O)Cc4ccsc4Br)nnc3c2=O)cccc1C(F)(F)F` [Compound 125, 3-((2-bromothiophen-3-yl)methylsulfonyl)-7-(2-methyl-3-(trifluoromethyl)phenyl)-[1,2,4]triazolo[4,3-a]pyrazin-8(7H)-one], for which the IC50 was 15.5 nM.

With `Cc1c(Cl)cccc1-n1ccn2c(S(=O)(=O)Cc3ccccc3-c3ccccc3)nnc2c1=O` [Compound 155, 3-(biphenyl-2-ylmethylsulfonyl)-7-(3-chloro-2-methylphenyl)-[1,2,4]triazolo[4,3-a]pyrazin-8(7H)-one], the half-inhibitory concentration (IC50) was found to be 53.2 nM.

On to `Cc1c(Cl)cccc1-n1ccn2c(SCc3cccnc3)nnc2c1=O` [Compound 96, 7-(3-chloro-2-methylphenyl)-3-(pyridin-3-ylmethylthio)-[1,2,4]triazolo[4,3-a]pyrazin-8(7H)-one], for which the half-maximal inhibitory concentration (IC50) came to 4220 nM.

Consider `O=c1c2nnc(SCc3cc(Cl)cc(Cl)c3)n2ccn1-c1cccc(Cl)c1Cl` [Compound 67, 3-(3,5-dichlorobenzylthio)-7-(2,3-dichlorophenyl)-[1,2,4]triazolo[4,3-a]pyrazin-8(7H)-one], for which the IC50 is 168 nM.

As for `Cc1c(-n2ccn3c(S(=O)(=O)Cc4ccccc4)nnc3c2=O)cccc1C(F)(F)F` [Compound 116], the IC50 turned out to be 29 nM.

Regarding `Cc1c(Br)cccc1-n1ccn2c(SCc3ccccc3)nnc2c1=O` [Compound 99, 3-(benzylthio)-7-(3-bromo-2-methylphenyl)-[1,2,4]-triazolo[4,3-a]pyrazin-8(7H)-one], the half-inhibitory concentration (IC50) was 250 nM.

On to `Cc1c(Cl)cccc1-n1ccn2c(SCc3ccccc3[N+](=O)[O-])nnc2c1=O` [Compound 53, 7-(3-chloro-2-methylphenyl)-3-(2-nitrobenzylthio)-[1,2,4]triazolo[4,3-a]pyrazin-8(7H)-one], for which the IC50 worked out at 994 nM.

On to `Cc1c(Cl)cccc1-n1ccn2c(SCc3ccccc3C(F)(F)F)nnc2c1=O` [Compound 111, 7-(3-chloro-2-methylphenyl)-3-(2-(trifluoromethyl)benzylthio)-[1,2,4]triazolo[4,3-a]pyrazin-8(7H)-one], for which the concentration for half-maximal inhibition (IC50) was determined as 515 nM.

Regarding `O=c1c2nnc(SCc3cccc4ccccc34)n2ccn1-c1cccc(C(F)(F)F)c1Cl` [Compound 27, 7-(2-chloro-3-(trifluoromethyl)phenyl)-3-(naphthalen-1-ylmethylthio)-[1,2,4]triazolo[4,3-a]pyrazin-8(7H)-one], the half-maximal inhibitory concentration (IC50) was 166 nM.

Turning to `Cc1c(Cl)cccc1-n1ccn2c(SCc3ccccc3Br)nnc2c1=O` [Compound 71, 3-(2-bromobenzylthio)-7-(3-chloro-2-methylphenyl)-[1,2,4]triazolo[4,3-a]pyrazin-8(7H)-one], the IC50 worked out at 142 nM.

For `Cc1c(-n2ccn3c(SCc4nc5ccccc5n4C)nnc3c2=O)cccc1C(F)(F)F` [Compound 3, 3-((1-methyl-1H-benzo[d]imidazol-2-yl)methylthio)-7-(2-methyl-3-(trifluoromethyl)phenyl)-[1,2,4]triazolo[4,3-a]pyrazin-8(7H)-one], the concentration for half-maximal inhibition (IC50) was determined as 5670 nM.

In the case of `Cc1c(Cl)cccc1-n1ccn2c(SCc3ccccc3C(C)C)nnc2c1=O` [Compound 41, 7-(3-chloro-2-methylphenyl)-3-(2-isopropylbenzylthio)-[1,2,4]triazolo[4,3-a]pyrazin-8(7H)-one], the half-maximal inhibitory concentration (IC50) was 372 nM.

With `Cc1ccccc1CSc1nnc2c(=O)n(-c3cccc(C(F)(F)F)c3C)ccn12` [Compound 57, 7-(2-methyl-3-(trifluoromethyl)phenyl)-3-(2-methylbenzylthio)-[1,2,4]triazolo[4,3-a]pyrazin-8(7H)-one], the concentration for half-maximal inhibition (IC50) worked out at 86.4 nM.

For the compound `[2H]c1c([2H])c([2H])c(CSc2nnc3c(=O)n(-c4cccc(C(F)(F)F)c4C)ccn23)c([2H])c1[2H]` [Compound 21, deuterated-7-[2-methyl-3-(trifluoromethyl)phenyl]-3-[(phenyl-(d5)-methy)thio]-1,2,4-triazolo[4,3-a]pyrazin-8(7H)-one], the IC50 worked out at 84.9 nM.

For `Cc1c(Cl)cccc1-n1ccn2c(SCc3cccc(Cl)c3Cl)nnc2c1=O` [Compound 66, 7-(3-chloro-2-methylphenyl)-3-(2,3-dichlorobenzylthio)-[1,2,4]triazolo[4,3-a]pyrazin-8(7H)-one], the half-inhibitory concentration (IC50) worked out at 324 nM.

As for `Cc1c(-n2ccn3c(S(=O)(=O)Cc4ccccc4C(C)(C)C)nnc3c2=O)cccc1C(F)(F)F` [Compound 129, 3-(2-tert-butylbenzylsulfonyl)-7-(2-methyl-3-(trifluoromethyl)phenyl)-[1,2,4]triazolo[4,3-a]pyrazin-8(7H)-one], the IC50 was 17 nM.

In the case of `Cc1c(Cl)cccc1-n1ccn2c(SCc3c(F)cccc3C(F)(F)F)nnc2c1=O` [Compound 68, 7-(3-chloro-2-methylphenyl)-3-(2-fluoro-6-(trifluoromethyl)benzylthio)-[1,2,4]triazolo[4,3-a]pyrazin-8(7H)-one], the IC50 is 475 nM.

With `Cc1c(Cl)cccc1-n1ccn2c(SCc3ccccc3COc3ccccc3)nnc2c1=O` [Compound 42, 7-(3-chloro-2-methylphenyl)-3-(2-(phenoxymethyl)benzylthio)-[1,2,4]triazolo[4,3-a]pyrazin-8(7H)-one], the half-inhibitory concentration (IC50) came to 170 nM.

As to `O=c1c2nnc(SCc3ccccc3)n2ccn1-c1ccc(Cl)c(Cl)c1` [Compound 100, 3-(benzylthio)-7-(3,4-dichlorophenyl)-[1,2,4]triazolo[4,3-a]pyrazin-8(7H)-one], the half-inhibitory concentration (IC50) amounted to 3920 nM.

For the compound `Cc1c(-n2ccn3c(SCc4ccccc4F)nnc3c2=O)cccc1C(F)(F)F` [Compound 56, 3-(2-fluorobenzylthio)-7-(2-methyl-3-(trifluoromethyl)phenyl)-[1,2,4]triazolo[4,3-a]pyrazin-8(7H)-one], the half-maximal inhibitory concentration (IC50) is 167 nM.

In the case of `Cc1c(Cl)cccc1-n1ccn2c(SCc3ccccc3C(C)(C)C)nnc2c1=O` [Compound 19, 3-(2-tent-butylbenzylthio)-7-(3-chloro-2-methylphenyl)-[1,2,4]triazolo[4,3-a]pyrazin-8(7H)-one], the IC50 is 165 nM.

Take `Cc1c(-n2ccn3c(S(=O)(=O)Cc4ccccc4-c4ccccc4)nnc3c2=O)cccc1C(F)(F)F` [Compound 126]: the concentration for half-maximal inhibition (IC50) worked out at 15.9 nM.

For `Cc1c(Cl)cccc1-n1ccn2c(SCc3cccc(OC(F)(F)F)c3)nnc2c1=O` [Compound 85, 7-(3-chloro-2-methylphenyI)-3-(3-(trifluoromethoxy)benzylthio)-[1,2,4]triazolo[4,3-a]pyrazin-8(7H)-one], the IC50 amounted to 503 nM.

As to `Cc1cccc(-n2ccn3c(SCc4ccccc4)nnc3c2=O)c1C` [Compound 92, 3-(benzylthio)-7-(2,3-dimethylphenyl)-[1,2,4]triazolo[4,3-a]pyrazin-8(7H)-one], the half-maximal inhibitory concentration (IC50) stood at 209 nM.

Consider `Cc1c(Cl)cccc1-n1ccn2c(SCc3ccccc3Cc3ccccc3)nnc2c1=O` [Compound 45, 3-(2-benzylbenzylthio)-7-(3-chloro-2-methylphenyl)-[1,2,4]triazolo[4,3-a]pyrazin-8(7H)-one], for which the 50% inhibitory concentration (IC50) was determined as 176 nM.

As to `Cc1c(-n2ccn3c(SCc4ccccc4Br)nnc3c2=O)cccc1C(F)(F)F` [Compound 12, 3-(2-bromobenzylthio)-7-(2-methyl-3-(trifluoromethyl)phenyl)-[1,2,4]triazolo[4,3-a]pyrazin-8(7H)-one], the IC50 stood at 107 nM.

What is called IC50 is the midpoint of a concentration-inhibition curve.
